Reference: patent US20230278981A1, “DICHLOROPHENOL HSD17B13 INHIBITORS AND USES THEREOF” (INIPHARM, INC., priority 2020, published 2023)
Counter-ions that a name gives are not always drawn.

What follows are compounds tested against HSD17B13 (Homo sapiens (Human), UniProt Q7Z5P4) (assay: LC/MS estrone detection assay: conversion of estradiol to estrone by HSD17B13). Settings: 4 μM estradiol, 6 mM NAD+, 30 nM HSD17B13 enzyme (E. coli expressed His-tagged), 2 hours at 26.5° C.
Chain of HSD17B13 (Q7Z5P4 20-300): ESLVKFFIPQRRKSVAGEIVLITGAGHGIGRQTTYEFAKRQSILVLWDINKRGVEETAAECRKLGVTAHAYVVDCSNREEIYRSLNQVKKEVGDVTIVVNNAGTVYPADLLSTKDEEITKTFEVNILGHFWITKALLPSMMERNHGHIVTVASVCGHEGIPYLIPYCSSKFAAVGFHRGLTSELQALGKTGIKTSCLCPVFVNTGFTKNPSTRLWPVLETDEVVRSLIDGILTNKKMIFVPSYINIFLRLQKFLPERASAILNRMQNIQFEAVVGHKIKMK
Format: biochemical
How it was run: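 His-tagged E. coli-expressed HSD17B13 (30 nM) with 4 μM estradiol and 6 mM NAD+ in 1 M potassium phosphate pH 7.4, 0.5% DMSO, 2 h at 26.5° C. Estrone and estradiol quantified by LC-MS/MS after MeCN quench with D4-estrone internal standard; activity as % of uninhibited enzyme, IC50 by four-parameter fit, duplicates.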
With `O=C(Nc1cccc2ncn(Cc3cccnc3OC(F)(F)F)c(=O)c12)c1cc(Cl)c(O)c(Cl)c1` [Example 87, 3,5-dichloro-4-hydroxy-N-(4-oxo-3-((2-(trifluoromethoxy)pyridin-3-yl)methyl)-3,4-dihydroquinazolin-5-yl)benzamide] the IC50 was 100 to 500 nM. For `Cc1ccc(NC(=O)c2cc(Cl)c(O)c(Cl)c2)c2c(=O)n(Cc3ccccc3OC(F)(F)F)cnc12` [Example 88, 3,5-dichloro-4-hydroxy-N-(8-methyl-4-oxo-3-(2-(trifluoromethoxy)benzyl)-3,4-dihydroquinazolin-5-yl)benzamide], the IC50 was ≤ 100 nM. For `Cc1ccc(NC(=O)c2cc(Cl)c(O)c(Cl)c2)c2c(=O)n(Cc3ccccc3OC(F)(F)F)c(C)nc12` [Example 89, 3,5-dichloro-N-(2,8-dimethyl-4-oxo-3-(2-(trifluoromethoxy)benzyl)-3,4-dihydroquinazolin-5-yl)-4-hydroxybenzamide], the IC50 was ≤ 100 nM. In the case of `O=C(Nc1ccc(Cl)c2ncn(Cc3ccccc3OC(F)(F)F)c(=O)c12)c1cc(Cl)c(O)c(Cl)n1` [Example 90, 4,6-dichloro-N-(8-chloro-4-oxo-3-(2-(trifluoromethoxy)benzyl)-3,4-dihydroquinazolin-5-yl)-5-hydroxypicolinamide], the IC50 is reported as 100 to 500 nM. For `Cc1ccc(NC(=O)c2cc(Cl)c(O)c(Cl)n2)c2c(=O)n(Cc3ccccc3OC(F)(F)F)cnc12` [Example 91, 4,6-dichloro-5-hydroxy-N-(8-methyl-4-oxo-3-(2-(trifluoromethoxy)benzyl)-3,4-dihydroquinazolin-5-yl)picolinamide], the IC50 was 100 to 500 nM. Work on `O=C(Nc1ccnc2ncn(Cc3ccccc3OC(F)(F)F)c(=O)c12)c1cc(Cl)c(O)c(Cl)c1` [Example 92, 3,5-dichloro-4-hydroxy-N-(4-oxo-3-(2-(trifluoromethoxy)benzyl)-3,4-dihydropyrido[2,3-d]pyrimidin-5-yl)benzamide] yielded an IC50 of 100 to 500 nM. In the case of `Cn1c(=O)n(Cc2ccccc2OC(F)(F)F)c(=O)c2c(NC(=O)c3cc(Cl)c(O)c(Cl)c3)cccc21` [Example 93, 3,5-dichloro-4-hydroxy-N-(1-methyl-2,4-dioxo-3-(2-(trifluoromethoxy)benzyl)-1,2,3,4-tetrahydroquinazolin-5-yl)benzamide], the IC50 is reported as ≤ 100 nM. `Cc1ccc2ncn(Cc3ccccc3OC(F)(F)F)c(=O)c2c1NC(=O)c1cc(Cl)c(O)c(Cl)c1` [Example 94, 3,5-dichloro-4-hydroxy-N-(6-methyl-4-oxo-3-(2-(trifluoromethoxy)benzyl)-3,4-dihydroquinazolin-5-yl)benzamide] was tested, and the IC50 was 100 to 500 nM. `O=C(Nc1ccnc2[nH]c(=O)n(Cc3ccccc3OC(F)(F)F)c(=O)c12)c1cc(Cl)c(O)c(Cl)c1` [Example 95, 3,5-dichloro-N-(2,4-dioxo-3-(2-(trifluoromethoxy)benzyl)-1,2,3,4-tetrahydropyrido[2,3-d]pyrimidin-5-yl)-4-hydroxybenzamide] gave an IC50 of 100 to 500 nM. For `Cc1nc2nccc(NC(=O)c3cc(Cl)c(O)c(Cl)c3)c2c(=O)n1Cc1ccccc1OC(F)(F)F` [Example 96, 3,5-dichloro-4-hydroxy-N-(2-methyl-4-oxo-3-(2-(trifluoromethoxy)benzyl)-3,4-dihydropyrido[2,3-d]pyrimidin-5-yl)benzamide], the IC50 was ≤ 100 nM. Work on `O=C(Nc1csc2ncn(Cc3ccccc3)c(=O)c12)c1cc(Cl)c(O)c(Cl)c1` [Example 97, N-(3-benzyl-4-oxo-3,4-dihydrothieno[2,3-d]pyrimidin-5-yl)-3,5-dichloro-4-hydroxybenzamide] yielded an IC50 of 100 to 500 nM. `O=C(Nc1csc2ncn(Cc3ccccc3)c(=O)c12)c1cc(Cl)c(O)c(Cl)n1` [Example 98, N-(3-benzyl-4-oxo-3,4-dihydrothieno[2,3-d]pyrimidin-5-yl)-4,6-dichloro-5-hydroxypicolinamide] gave an IC50 of 100 to 500 nM. `Cn1nc(NC(=O)c2cc(Cl)c(O)c(Cl)c2)c2c(=O)n(Cc3ccccc3)cnc21` [Example 99, N-(5-benzyl-1-methyl-4-oxo-4,5-dihydro-1H-pyrazolo[3,4-d]pyrimidin-3-yl)-3,5-dichloro-4-hydroxybenzamide] gave an IC50 of 1000 to 10000 nM. In the case of `O=C(Nc1cccc2ncn(Cc3cnn4ccccc34)c(=O)c12)c1cc(Cl)c(O)c(Cl)c1` [Example 100, 3,5-dichloro-4-hydroxy-N-(4-oxo-3-(pyrazolo[1,5-a]pyridin-3-ylmethyl)-3,4-dihydroquinazolin-5-yl)benzamide], the IC50 is reported as 100 to 500 nM. With `O=C(Nc1cccc2nc(C(F)(F)F)n(C3CC3c3ccccc3)c(=O)c12)c1cc(Cl)c(O)c(Cl)n1` (centres unmarked) [Example 101, 4,6-dichloro-5-hydroxy-N-(4-oxo-3-(2-phenylcyclopropyl)-2-(trifluoromethyl)-3,4-dihydroquinazolin-5-yl)picolinamide] the IC50 was 1000 to 10000 nM. `O=C(Nc1csc2ncn(Cc3ccccc3OC(F)(F)F)c(=O)c12)c1cc(Cl)c(O)c(Cl)c1` [Example 103, 3,5-dichloro-4-hydroxy-N-(4-oxo-3-(2-(trifluoromethoxy)benzyl)-3,4-dihydrothieno[2,3-d]pyrimidin-5-yl)benzamide] was tested, and the IC50 was 100 to 500 nM. With `O=C(Nc1csc2ncn(Cc3ccccc3OC(F)(F)F)c(=O)c12)c1cc(Cl)c(O)c(Cl)n1` [Example 104, 4,6-dichloro-5-hydroxy-N-(4-oxo-3-(2-(trifluoromethoxy)benzyl)-3,4-dihydrothieno[2,3-d]pyrimidin-5-yl)picolinamide] the IC50 was 100 to 500 nM. `Cn1ccc(-c2ccccc2Cn2cnc3cccc(NC(=O)c4cc(Cl)c(O)c(Cl)c4)c3c2=O)n1` [Example 105, 3,5-dichloro-4-hydroxy-N-(3-(2-(1-methyl-1H-pyrazol-3-yl)benzyl)-4-oxo-3,4-dihydroquinazolin-5-yl)benzamide] gave an IC50 of 100 to 500 nM. `NS(=O)(=O)c1ccccc1Cn1cnc2cccc(NC(=O)c3cc(Cl)c(O)c(Cl)c3)c2c1=O` [Example 106, 3,5-dichloro-4-hydroxy-N-(4-oxo-3-(2-sulfamoylbenzyl)-3,4-dihydroquinazolin-5-yl)benzamide] was tested, and the IC50 was > 10000 nM. With `Cn1nc(NC(=O)c2cc(Cl)c(O)c(Cl)n2)c2c(=O)n(Cc3ccccc3)cnc21` [Example 107, N-(5-benzyl-1-methyl-4-oxo-4,5-dihydro-1H-pyrazolo[3,4-d]pyrimidin-3-yl)-4,6-dichloro-5-hydroxypicolinamide] the IC50 was 500 to 1000 nM. `O=C(Nc1cccc2ncn([C@@H]3C[C@H]3c3ccccc3)c(=O)c12)c1cc(Cl)c(O)c(Cl)n1` [Example 108, 4,6-dichloro-5-hydroxy-N-(4-oxo-3-((1R,2S)-2-phenylcyclopropyl)-3,4-dihydroquinazolin-5-yl)picolinamide TFA Salt] showed an IC50 of 500 to 1000 nM. `O=C(Nc1cccc2ncn([C@H]3C[C@@H]3c3ccccc3)c(=O)c12)c1cc(Cl)c(O)c(Cl)n1` [Example 109, 4,6-dichloro-5-hydroxy-N-(4-oxo-3-((1S,2R)-2-phenylcyclopropyl)-3,4-dihydroquinazolin-5-yl)picolinamide] showed an IC50 of 1000 to 10000 nM. `O=C(Nc1cccc2ncn(Cc3ccccc3-c3ccccn3)c(=O)c12)c1cc(Cl)c(O)c(Cl)n1` [Example 110, 4,6-dichloro-5-hydroxy-N-(4-oxo-3-(2-(pyridin-2-yl)benzyl)-3,4-dihydroquinazolin-5-yl)picolinamide] gave an IC50 of 100 to 500 nM. `Cc1ccc(NC(=O)c2cc(Cl)c(O)c(Cl)c2)c2c(=O)n(Cc3ccccc3OC(F)(F)F)c(C(F)(F)F)nc12` [Example 112, 3,5-dichloro-4-hydroxy-N-(8-methyl-4-oxo-3-(2-(trifluoromethoxy)benzyl)-2-(trifluoromethyl)-3,4-dihydroquinazolin-5-yl)benzamide] gave an IC50 of 100 to 500 nM. `Cn1c(=O)n(Cc2ccccc2OC(F)(F)F)c(=O)c2c(NC(=O)c3cc(Cl)c(O)c(Cl)n3)cccc21` [Example 113, 4,6-dichloro-5-hydroxy-N-(1-methyl-2,4-dioxo-3-(2-(trifluoromethoxy)benzyl)-1,2,3,4-tetrahydroquinazolin-5-yl)picolinamide] showed an IC50 of 100 to 500 nM. `Cc1nsc(NC(=O)c2cc(Cl)c(O)c(Cl)n2)c1C(=O)NCc1ccccc1F` [Example 114, 5-(4,6-dichloro-5-hydroxypicolinamido)-N-(2-fluorobenzyl)-3-methylisothiazole-4-carboxamide] was tested, and the IC50 was 100 to 500 nM. With `Cc1nsc(NC(=O)c2cc(Cl)c(O)c(Cl)n2)c1C(=O)N[C@@H](C)c1ccccc1F` [Example 115, (S)-5-(4,6-dichloro-5-hydroxypicolinamido)-N-(1-(2-fluorophenyl)ethyl)-3-methylisothiazole-4-carboxamide] the IC50 was 100 to 500 nM. Work on `O=C(Nc1cccc2nc(C(F)(F)F)n(C3CC3c3ccccc3)c(=O)c12)c1cc(Cl)c(O)c(Cl)c1` (centres unmarked) [Example 116, 3,5-dichloro-4-hydroxy-N-(4-oxo-3-(2-phenylcyclopropyl)-2-(trifluoromethyl)-3,4-dihydroquinazolin-5-yl)benzamide] yielded an IC50 of 100 to 500 nM. In the case of `Cn1nc(Cn2cnc3cccc(NC(=O)c4cc(Cl)c(O)c(Cl)c4)c3c2=O)c2ccccc21` [Example 117, 3,5-dichloro-4-hydroxy-N-(3-((1-methyl-1H-indazol-3-yl)methyl)-4-oxo-3,4-dihydroquinazolin-5-yl)benzamide], the IC50 is reported as ≤ 100 nM. Work on `Cn1nc(NC(=O)c2cc(Cl)c(O)c(Cl)c2)c2c(=O)n(Cc3ccccc3OC(F)(F)F)cnc21` [Example 118, 3,5-dichloro-4-hydroxy-N-(1-methyl-4-oxo-5-(2-(trifluoromethoxy)benzyl)-4,5-dihydro-1H-pyrazolo[3,4-d]pyrimidin-3-yl)benzamide] yielded an IC50 of 500 to 1000 nM. Compound `Cn1nc(NC(=O)c2cc(Cl)c(O)c(Cl)n2)c2c(=O)n(Cc3ccccc3OC(F)(F)F)cnc21` [Example 119, 4,6-dichloro-5-hydroxy-N-(1-methyl-4-oxo-5-(2-(trifluoromethoxy)benzyl)-4,5-dihydro-1H-pyrazolo[3,4-d]pyrimidin-3-yl)picolinamide] has an IC50 of 100 to 500 nM. `O=C(NCc1ccccc1OC(F)(F)F)C1CCCCN1C(=O)c1cc(Cl)c(O)c(Cl)n1` (centres unmarked) [Example 120, 1-(4,6-dichloro-5-hydroxypicolinoyl)-N-(2-(trifluoromethoxy)benzyl) piperidine-2-carboxamide] gave an IC50 of 1000 to 10000 nM.
